One assay deals with T1, HDAC6 enzyme (Homo sapiens, UniProt Q9UBN7).
T1 construct: prepared by transducing full length HDAC1 and HDAC6 genes into Sf-9 insect cells; GST; purchased SignalChem; host or cells: Sf-9 insect cells
T1 sequence (Q9UBN7 1-1215): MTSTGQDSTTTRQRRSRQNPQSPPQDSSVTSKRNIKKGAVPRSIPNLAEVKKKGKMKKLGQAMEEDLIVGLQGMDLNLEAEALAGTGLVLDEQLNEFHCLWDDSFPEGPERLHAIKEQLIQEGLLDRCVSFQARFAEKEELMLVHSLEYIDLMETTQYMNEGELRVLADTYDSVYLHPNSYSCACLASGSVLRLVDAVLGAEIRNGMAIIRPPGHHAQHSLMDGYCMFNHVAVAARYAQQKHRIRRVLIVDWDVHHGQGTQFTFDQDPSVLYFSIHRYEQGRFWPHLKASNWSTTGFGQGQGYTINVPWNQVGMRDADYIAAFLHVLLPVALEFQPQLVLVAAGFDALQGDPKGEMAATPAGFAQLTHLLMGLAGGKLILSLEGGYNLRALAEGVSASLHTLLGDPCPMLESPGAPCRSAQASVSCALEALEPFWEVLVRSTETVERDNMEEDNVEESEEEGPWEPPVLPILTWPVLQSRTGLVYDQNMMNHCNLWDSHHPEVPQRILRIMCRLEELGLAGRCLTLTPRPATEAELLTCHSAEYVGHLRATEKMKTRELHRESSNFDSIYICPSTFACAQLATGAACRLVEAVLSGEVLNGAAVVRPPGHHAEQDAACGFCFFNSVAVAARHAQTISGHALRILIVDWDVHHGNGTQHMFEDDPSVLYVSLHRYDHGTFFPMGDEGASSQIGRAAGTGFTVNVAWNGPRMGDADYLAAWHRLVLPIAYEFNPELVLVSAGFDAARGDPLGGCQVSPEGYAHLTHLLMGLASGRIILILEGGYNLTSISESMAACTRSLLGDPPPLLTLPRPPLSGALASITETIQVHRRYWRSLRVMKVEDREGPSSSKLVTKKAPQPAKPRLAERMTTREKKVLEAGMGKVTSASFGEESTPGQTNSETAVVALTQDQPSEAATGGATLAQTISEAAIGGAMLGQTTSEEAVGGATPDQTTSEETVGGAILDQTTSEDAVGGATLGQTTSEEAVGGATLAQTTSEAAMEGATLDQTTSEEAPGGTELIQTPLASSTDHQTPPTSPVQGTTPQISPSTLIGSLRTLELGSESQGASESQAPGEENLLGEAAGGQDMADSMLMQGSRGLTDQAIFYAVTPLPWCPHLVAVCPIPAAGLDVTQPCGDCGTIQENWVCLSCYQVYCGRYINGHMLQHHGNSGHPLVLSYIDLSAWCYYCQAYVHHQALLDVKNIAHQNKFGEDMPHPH
Put plainly: HDAC6 enzyme inhibitory assay (HDAC-Glo I/II Assay kit). The settings on record: 1 μM test compound; read-out: HDAC6 inhibitory rate (%) (1 μM). Type of assay: biochemical. An outline of the steps:
(§1)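 Luminescence read-out: 20 min after adding HDAC-Glo substrate-developer at room temperature. Before that, compound and Sf-9-expressed, GST-purified full-length HDAC1 or HDAC6 sat together 60 min in pH 7.5 Tris buffer. Inhibition is relative to no-enzyme wells taken as 100%.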

For the next assay, the target named is T2, HDAC1 enzyme (Homo sapiens, UniProt Q13547).
T2 construct: prepared by transducing full length HDAC1 and HDAC6 genes into Sf-9 insect cells; GST; purchased SignalChem; host or cells: Sf-9 insect cells
Put plainly: HDAC1 enzyme inhibitory assay (HDAC-Glo I/II Assay kit). The format is biochemical. The settings on record: 1 μM test compound; read-out: HDAC1 inhibitory rate (%) (1 μM). An outline of the steps: as §1

T2 sequence (Q13547 whole entry): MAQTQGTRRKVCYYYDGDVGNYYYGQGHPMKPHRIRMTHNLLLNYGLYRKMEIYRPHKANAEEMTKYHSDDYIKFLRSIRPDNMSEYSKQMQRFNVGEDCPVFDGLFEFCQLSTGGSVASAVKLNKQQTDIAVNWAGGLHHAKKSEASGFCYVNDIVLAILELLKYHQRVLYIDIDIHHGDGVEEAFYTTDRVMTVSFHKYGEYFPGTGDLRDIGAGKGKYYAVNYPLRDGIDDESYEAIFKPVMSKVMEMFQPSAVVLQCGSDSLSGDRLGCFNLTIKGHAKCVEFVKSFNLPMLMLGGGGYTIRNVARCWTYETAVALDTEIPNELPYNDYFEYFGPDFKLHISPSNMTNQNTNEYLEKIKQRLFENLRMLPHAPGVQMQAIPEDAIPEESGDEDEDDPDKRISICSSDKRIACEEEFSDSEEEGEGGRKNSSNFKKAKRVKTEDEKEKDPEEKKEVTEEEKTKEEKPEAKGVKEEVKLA

As for `O=C(NC[C@@H]1COCCN1C(=O)C1(c2ccccc2)CC1)c1ccc(-c2noc(C(F)(F)F)n2)cn1` [Example 208, N-(((3R)-4-((1-phenylcyclopropyl)carbonyl)morpholin-3-yl)methyl)-5-(5-(trifluoromethyl)-1,2,4-oxadiazol-3-yl)pyridine-2-carboxamide], the values for the inhibition at 1 µM on HDAC6 enzyme and on HDAC1 enzyme were 92% and 16%, respectively.

As for `O=C(NC[C@@H]1COCCN1C(=O)c1cc(Cl)cc(Cl)c1)c1ccc(-c2noc(C(F)(F)F)n2)cn1` [Example 209, N-(((3R)-4-(3,5-dichlorobenzoyl)morpholin-3-yl)methyl)-5-(5-(trifluoromethyl)-1,2,4-oxadiazol-3-yl)pyridine-2-carboxamide], the results for the inhibition at 1 µM on HDAC6 enzyme and at HDAC1 enzyme were 95% and 21%, respectively.

On to `O=C(NCC1COCCN1C(=O)c1ccccc1)c1ccc(-c2noc(C(F)(F)F)n2)s1` (stereo not shown) [Example 210, N-((4-benzoylmorpholin-3-yl)methyl)-5-(5-(trifluoromethyl)-1,2,4-oxadiazol-3-yl)thiophene-2-carboxamide], for which the inhibition at 1 µM at HDAC6 enzyme came to 96%; at HDAC1 enzyme, 23%.

Consider `O=C(NCC1COCCN1C(=O)c1cc(Cl)cc(Cl)c1)c1ccc(-c2noc(C(F)(F)F)n2)s1` (stereo not shown) [Example 211, N-((4-(3,5-dichlorobenzoyl)morpholin-3-yl)methyl)-5-(5-(trifluoromethyl)-1,2,4-oxadiazol-3-yl)thiophene-2-carboxamide], for which the inhibition at 1 µM on HDAC6 enzyme was 96%; at HDAC1 enzyme, 15%.

On to `O=C(NCC1COCCN1C(=O)c1cccc(-c2ccccc2)c1)c1ccc(-c2noc(C(F)(F)F)n2)s1` (stereo not shown) [Example 222, N-((4-(biphenyl-3-ylcarbonyl)morpholin-3-yl)methyl)-5-(5-(trifluoromethyl)-1,2,4-oxadiazol-3-yl)thiophene-2-carboxamide], for which the results for the inhibition at 1 µM on HDAC6 enzyme and at HDAC1 enzyme were 89% and 7%, respectively.

As to `Cc1oncc1C(=O)N1CCOCC1CNC(=O)c1ccc(-c2noc(C(F)(F)F)n2)s1` (stereo not shown) [Example 235, N-((4-((5-methyl-1,2-oxazol-4-yl)carbonyl)morpholin-3-yl)methyl)-5-(5-(trifluoromethyl)-1,2,4-oxadiazol-3-yl)thiophene-2-carboxamide], the inhibition at 1 µM on HDAC6 enzyme worked out at 99%; at HDAC1 enzyme it was 17%.

With `Cc1nonc1C(=O)N1CCOCC1CNC(=O)c1ccc(-c2noc(C(F)(F)F)n2)s1` (stereo not shown) [Example 236, N-((4-((4-methyl-1,2,5-oxadiazol-3-yl)carbonyl)morpholin-3-yl)methyl)-5-(5-(trifluoromethyl)-1,2,4-oxadiazol-3-yl)thiophene-2-carboxamide], the inhibition at 1 µM on HDAC6 enzyme was 98%; on HDAC1 enzyme it was 43%.

For `Cc1nnsc1C(=O)N1CCOCC1CNC(=O)c1ccc(-c2noc(C(F)(F)F)n2)s1` (stereo not shown) [Example 237, N-((4-((4-methyl-1,2,3-thiadiazol-5-yl)carbonyl)morpholin-3-yl)methyl)-5-(5-(trifluoromethyl)-1,2,4-oxadiazol-3-yl)thiophene-2-carboxamide], the inhibition at 1 µM at HDAC6 enzyme was determined as 98%; on HDAC1 enzyme, 27%.

In the case of `O=C(NCC1COCCN1C(=O)C(F)(F)c1ccccc1)c1ccc(-c2noc(C(F)(F)F)n2)s1` (stereo not shown) [Example 246, N-((4-(difluoro(phenyl)acetyl)morpholin-3-yl)methyl)-5-(5-(trifluoromethyl)-1,2,4-oxadiazol-3-yl)thiophene-2-carboxamide], the inhibition at 1 µM is 99% on HDAC6 enzyme and 52% on HDAC1 enzyme.

Turning to `CC(C)(C(=O)N1CCOCC1CNC(=O)c1ccc(-c2noc(C(F)(F)F)n2)s1)c1ccccc1` (stereo not shown) [Example 247, N-((4-(2-methyl-2-phenylpropanoyl)morpholin-3-yl)methyl)-5-(5-(trifluoromethyl)-1,2,4-oxadiazol-3-yl)thiophene-2-carboxamide], the inhibition at 1 µM at HDAC6 enzyme stood at 98%; at HDAC1 enzyme, 18%.

For the compound `O=C(NCC1COCCN1C(=O)C1(c2ccccc2)CC1)c1ccc(-c2noc(C(F)(F)F)n2)s1` (stereo not shown) [Example 248, N-((4-((1-phenylcyclopropyl)carbonyl)morpholin-3-yl)methyl)-5-(5-(trifluoromethyl)-1,2,4-oxadiazol-3-yl)thiophene-2-carboxamide], the inhibition at 1 µM worked out at 97% on HDAC6 enzyme and 18% on HDAC1 enzyme.

`Cn1nc2ccccc2c1C(=O)N1CCOCC1CNC(=O)c1ccc(-c2noc(C(F)(F)F)n2)s1` (stereo not shown) [Example 251, N-((4-((2-methyl-2H-indazol-3-yl)carbonyl)morpholin-3-yl)methyl)-5-(5-(trifluoromethyl)-1,2,4-oxadiazol-3-yl)thiophene-2-carboxamide]: the values for the inhibition at 1 µM on HDAC6 enzyme and on HDAC1 enzyme were 96% and 36%, respectively.

As to `O=C(NCC1COCCN1C(=O)C1CCCCC1)c1ccc(-c2noc(C(F)(F)F)n2)s1` (stereo not shown) [Example 254, N-((4-(cyclohexylcarbonyl)morpholin-3-yl)methyl)-5-(5-(trifluoromethyl)-1,2,4-oxadiazol-3-yl)thiophene-2-carboxamide], the inhibition at 1 µM on HDAC6 enzyme amounted to 98%; at HDAC1 enzyme, 33%.

Regarding `O=C(NCC1COCCN1C(=O)C1C2CC3CC(C2)CC1C3)c1ccc(-c2noc(C(F)(F)F)n2)s1` (stereo not shown) [Example 256, N-((4-(adamantan-2-ylcarbonyl)morpholin-3-yl)methyl)-5-(5-(trifluoromethyl)-1,2,4-oxadiazol-3-yl)thiophene-2-carboxamide], the results for the inhibition at 1 µM on HDAC6 enzyme and at HDAC1 enzyme were 99% and 34%, respectively.

Regarding `Cc1oncc1C(=O)N1CCOC[C@@H]1CNC(=O)c1ccc(-c2noc(C(F)(F)F)n2)s1` [Example 259, N-(((3S)-4-((5-methyl-1,2-oxazol-4-yl)carbonyl)morpholin-3-yl)methyl)-5-(5-(trifluoromethyl)-1,2,4-oxadiazol-3-yl)thiophene-2-carboxamide], the inhibition at 1 µM on HDAC6 enzyme was determined as 100%; at HDAC1 enzyme it was 25%.

For `Cc1nonc1C(=O)N1CCOC[C@@H]1CNC(=O)c1ccc(-c2noc(C(F)(F)F)n2)s1` [Example 260, N-(((3S)-4-((4-methyl-1,2,5-oxadiazol-3-yl)carbonyl)morpholin-3-yl)methyl)-5-(5-(trifluoromethyl)-1,2,4-oxadiazol-3-yl)thiophene-2-carboxamide], the inhibition at 1 µM on HDAC6 enzyme is 98%; on HDAC1 enzyme it was 44%.

Take `O=C(NC[C@H]1COCCN1C(=O)C(F)(F)c1ccccc1)c1ccc(-c2noc(C(F)(F)F)n2)s1` [Example 261, N-(((3S)-4-(difluoro(phenyl)acetyl)morpholin-3-yl)methyl)-5-(5-(trifluoromethyl)-1,2,4-oxadiazol-3-yl)thiophene-2-carboxamide]: the inhibition at 1 µM at HDAC6 enzyme is 101%; at HDAC1 enzyme it was 53%.

For the compound `O=C(NC[C@H]1COCCN1C(=O)c1cccc(-c2ccccc2)c1)c1ccc(-c2noc(C(F)(F)F)n2)s1` [Example 262, N-(((3S)-4-(biphenyl-3-ylcarbonyl)morpholin-3-yl)methyl)-5-(5-(trifluoromethyl)-1,2,4-oxadiazol-3-yl)thiophene-2-carboxamide], the values for the inhibition at 1 µM at HDAC6 enzyme and on HDAC1 enzyme were 94% and 16%, respectively.

For `CC(C)(C(=O)N1CCOC[C@@H]1CNC(=O)c1ccc(-c2noc(C(F)(F)F)n2)s1)c1ccccc1` [Example 263, N-(((3S)-4-(2-methyl-2-phenylpropanoyl)morpholin-3-yl)methyl)-5-(5-(trifluoromethyl)-1,2,4-oxadiazol-3-yl)thiophene-2-carboxamide], the inhibition at 1 µM on HDAC6 enzyme stood at 99%; on HDAC1 enzyme, 32%.

As for `Cc1nonc1C(=O)N1CCOC[C@H]1CNC(=O)c1ccc(-c2noc(C(F)(F)F)n2)s1` [Example 264, N-(((3R)-4-((4-methyl-1,2,5-oxadiazol-3-yl)carbonyl)morpholin-3-yl)methyl)-5-(5-(trifluoromethyl)-1,2,4-oxadiazol-3-yl)thiophene-2-carboxamide], the inhibition at 1 µM worked out at 99% at HDAC6 enzyme and 48% on HDAC1 enzyme.

For the origin of these results see US10081624B2, “Heterocyclic compound” (Takeda Pharmaceutical Company Limited, priority 2014, dated 2018).
